Assay results reported in paper PMC12655518, “Screening Novel Furoxan Derivatives as Potential Inhibitors Targeting Thioredoxin Glutathione Reductase of Fasciola gigantica” (Pharmaceuticals, 2025).
Read-outs that look alike come from different tables or passages of the source.

Key:
FgTGRsec (TrxR activity) [1] = biological target: T1, FgTGRsec (TrxR activity) (Fasciola gigantica, UniProt A0A0K1NYF8); assay: DTNB-based TrxR activity inhibition assay of FgTGRsec; type: biochemical; details: DTNB reduction, 20 min incubation, triplicate, read-out: IC50 of rFgTGRsec
T1 sequence (A0A0K1NYF8 entry or part of it): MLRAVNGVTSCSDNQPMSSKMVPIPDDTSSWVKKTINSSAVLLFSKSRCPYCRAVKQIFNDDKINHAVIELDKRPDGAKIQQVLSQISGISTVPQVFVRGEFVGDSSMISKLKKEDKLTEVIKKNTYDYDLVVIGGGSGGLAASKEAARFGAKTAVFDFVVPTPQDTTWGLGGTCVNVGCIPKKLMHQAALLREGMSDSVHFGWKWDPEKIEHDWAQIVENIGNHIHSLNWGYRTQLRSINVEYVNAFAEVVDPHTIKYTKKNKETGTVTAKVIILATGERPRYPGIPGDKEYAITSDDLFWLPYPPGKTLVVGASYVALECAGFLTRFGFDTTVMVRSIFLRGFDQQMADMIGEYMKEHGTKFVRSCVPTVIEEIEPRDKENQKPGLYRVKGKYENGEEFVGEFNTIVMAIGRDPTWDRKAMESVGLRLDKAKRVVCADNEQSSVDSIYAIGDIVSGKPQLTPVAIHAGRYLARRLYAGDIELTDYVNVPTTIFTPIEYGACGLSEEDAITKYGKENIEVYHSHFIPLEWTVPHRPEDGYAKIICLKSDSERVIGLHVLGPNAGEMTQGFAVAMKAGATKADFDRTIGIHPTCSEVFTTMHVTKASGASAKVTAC
Method: The TrxR activity of FgTGR and FgTGRsec was determined by using the 5, 5′-diothiobis (2-nitrobenzoic acid, DTNB, 4 mg/mL) (Sigma, St. Louis, MO, USA) reduction assay at room temperature. The reaction mixture was composed of 180 μL working buffer (0.1 mM potassium phosphate, pH 7.0, 10 mMEDTA, 100 μM β-nicotinamide adenine dinucleotide phosphate (NADPH) (Sigma)), 4 μL assay buffer (0.1 mM potassium phosphate, pH 7.0, 10 mM EDTA), 6 μL DTNB, and 10 μL rFgTGR or rFgTGRsec (600 μg/mL). The reaction was initiated by the adding DTNB at concentrations ranging from 100 μmol/L to 1000 μmol/L. An increase in absorbance at 412 nm was observed within the first 2 min. One unit of thioredoxin reductase (TrxR) activity was defined as the amount of enzyme that catalyzes the production of 1 μmol of 2-nitro-5-thiobenoic acid (TNB) per minute at room temperature. The reaction mixture without FgTGR or FgTGRsec was used as a negative control, and the processes of the negative experiments were the same as the above description.
To evaluate the effect of furoxan derivatives on FgTGRsec, the activity of TrxR was measured. The furoxan derivatives were soluble in dimethyl sulfoxide (DMSO), and seven concentrations of each derivative were prepared based on their distinct structures. For the DTNB-based TrxR activity inhibition assay, reaction mixtures were prepared as described in the TrxR activity assay protocol. The components were incubated for 20 min, after which the reaction was initiated by adding DTNB. The increase in absorbance at 412 nm was measured to evaluate the inhibitory effect of each furoxan derivative. The half-maximal inhibitory concentration (IC50) values of the compounds were calculated by GraphPad Prism v6.0c software. The reaction without FgTGRsec and furoxan derivatives served as the blank control, while the reaction with furoxan was the positive control. All assays were performed in triplicate.

FgTGRsec (GR activity) = test system: FgTGRsec (GR activity); parameters: method as in PMID 29526505; details: cited from earlier work
[2] = test system: Taenia crassiceps cysticerci; parameters: method as in PMID 20431894; details: cited from earlier work
FgTGRsec (TrxR activity) [3] = biological target: T1, FgTGRsec (TrxR activity); parameters: method as in PMID 29526505; details: cited from earlier work
SjTGRsec (TrxR activity) = test system: SjTGRsec (TrxR activity); parameters: method as in PMID 33902686; details: S. japonicum, result in words; cited from earlier work

## [O-][n+]1onc(-c2ccc(C(F)(F)F)cc2)c1CN1CCN(c2ccccc2F)CC1 [CH-33]
FgTGRsec (TrxR activity) [1]
  IC50: 18.5 ± 2.57 µM

## CC(=O)OC[C@H]1O[C@@H]([S-])[C@H](OC(C)=O)[C@@H](OC(C)=O)[C@@H]1OC(C)=O.CCP(CC)CC.[Au+] [AF, auranofin]
FgTGRsec (GR activity)
  IC50: 8.3 µM
[2]; Taenia crassiceps cysticerci cultured with AF for 12 h
  IC50: 3.8 µM
[2]; after culturing with AF for 12 h
  survival of cysticerci: all dead
FgTGRsec (TrxR activity) [3]
  IC50: 0.87 µM

## [O-][n+]1onc(-c2ccncc2)c1CO [LGM-2]
FgTGRsec (TrxR activity) [1]
  IC50: 15.2 ± 0.8 µM

## [O-][n+]1onc(-c2ccc(C(F)(F)F)nc2)c1CO [LGM-35]
SjTGRsec (TrxR activity)
  inhibition of TrxR activity: most significant inhibition
FgTGRsec (TrxR activity) [1]
  IC50: 4.5 ± 0.35 µM

## [O-][n+]1onc(-c2cccnc2)c1CO [LGM-1]
FgTGRsec (TrxR activity) [1]
  IC50: 6.93 ± 1.74 µM

## [O-][n+]1onc(-c2cccc(Cl)c2)c1CO [ZWJ-19]
FgTGRsec (TrxR activity) [1]
  IC50: 3.82 ± 0.33 µM
